In data set [1] the test system is AMPA receptors. The data set can be described thus: electrophysiological assay, AMPA receptors expressed in oocyte. The data set is classed as cell-based, rat. To be noted: inhibiting or modulating AMPA receptors expressed in oocyte, read-out: AMPA IC50. The source says:
The compounds of the present invention may be assessed by electrophysiological assays in Xenopus oocytes expressing rat whole brain poly(A)^+ RNA (see Keana et. al. J. Med. Chem. 38: 4367-4379 (1995)) or in cultured rat cortical neurons (see Woodward et. al. Mol. Pharmacol. 47: 568-581 (1995)) for AMPA receptor activity. Compounds which are useful for treating or preventing the adverse consequences of stroke, hypoglycemia, neurodegenerative disorders, anxiety, epilepsy or psychosis, or which induce analgesia, will inhibit the currents across the membranes of the oocyte expressing AMPA receptors. However, if the compound potentiates currents across the oocyte membrane, then the compound is expected to be useful in enhancing cognition or treating schizophrenia or neurodegenerative disease such as Parkinson's Disease.
The potency of antagonism or potentiation for these compounds were determined by electrophysiological assay. Potencies of selective compounds described above in inhibiting or modulating AMPA receptors expressed in oocyte and their anticonvulsant activity against maximal electroshock induced convulsion are shown in Table 1.

Data set [2] concerns maximal electroshock induced convulsion. The data set can be described thus: Maximal Electroshock-induced Seizure (MES) test. Conditions: iv, anticonvulsant activity against maximal electroshock induced convulsion; for ED50: Mus musculus. The data set is classed as in vivo, mice. The source says: The compounds of the present invention may be tested for […] anticonvulsant activity after iv or ip injection using a number of anticonvulsant tests in mice (audiogenic seizure model in DBA-2 mice. pentylenetetrazol-induced seizures in mice, maximum electroshock seizure test (MES)). The anticonvulsant activity of the AMPA antagonists may be evaluated in the Maximal Electroshock-induced Seizure (MES) test. Seizures are induced by application of current (50 mA, 60 pulses/sec, […], 1 sec duration, d.c.) through saline-coated corneal electrodes using a Ugo Basile ECT device (Model 7801). […] A tonic seizure is defined as a hindlimb extension in excess of 90 degrees from the plane of the body. Results are treated in a quintal manner. The potency of antagonism or potentiation for these compounds were determined by electrophysiological assay. Potencies of selective compounds described above in inhibiting or modulating AMPA receptors expressed in oocyte and their anticonvulsant activity against maximal electroshock induced convulsion are shown in Table 1.

Structures are written as SMILES. Structures can show the parent of a compound that is named as a salt. Where two headings read alike, the source gives them in different places.

Consider 11 molecules from patent publication US7652006B2, “Substituted 1(2H)-phthalazinones and pharmaceutical compositions thereof” (Euro-Celtique S.A., priority 1998, dated 2010).

Consider `CN(C)CCn1c(=O)nc(-c2ccc3c(c2)OCO3)c2cc3c(cc21)OCO3` [1-(2-(dimethylamino)ethyl)-6,7-methylenedioxy-4-(3,4-methylenedioxyphenyl)-quinazolin-2(1H)-one], for which the melting point was in the range of 175 to 182 °C. The IC50 in data set [1] turned out to be 1 µM. For the same molecule, the “MES ED50” value in data set [2] is listed as 1.5 mg/kg.
`CC(C)n1c(=O)nc(-c2ccc3ccccc3c2)c2cc3c(cc21)OCO3` [1-Isopropyl-6,7-methylenedioxy-4-(2-naphthyl)quinazolin-2(1H)-one] had a melting point of 213 to 215 °C. Further, in data set [1], the IC50 is 2 µM. Also, the ED50 in data set [2] turned out to be 4.5 mg/kg.
With `CN(C)CCn1c(=O)nc(-c2ccc3c(c2)OCCO3)c2cc3c(cc21)OCO3` [1-(2-(dimethylamino)ethyl)-6,7-methylenedioxy-4-(3,4-ethylenedioxyphenyl)-quinazolin-2(1H)-one], the melting point is 220 to 225 °C. The IC50 in data set [1] was 0.2 µM. Moreover, in data set [2], the ED50 amounted to 1 mg/kg.
`CC(C)n1c(=O)nc(-c2cc3c(cc2Cl)OCO3)c2cc3c(cc21)OCO3` [1-Isopropyl-6,7-methylenedioxy-4-(2-chloro-4,5-methylenedioxyphenyl)quinazolin-2(1H)-one] displayed a melting point of 147 to 150 °C. In data set [1], the IC50 worked out at 5.5 µM. Moreover, the ED50 in data set [2] stood at 6.2 mg/kg.
As for `[O-][n+]1c(Cn2ccnc2)nc2cc3c(cc2c1-c1ccc2c(c1)OCO2)OCO3` [2-(Imidazol-1-yl)methyl-6,7-methylenedioxy-4-(3,4-methylenedioxyphenyl)quinazoline-3-oxide], in data set [1], the IC50 was 5 µM. In addition, the ED50 in data set [2] came to 5 mg/kg.
For the molecule `CN(C)CCn1c(=O)nc(-c2ccc3c(c2)OCO3)c2cc3c(cc21)OCO3` [1-(2-(dimethylamino)ethyl)-6,7-methylenedioxy-4-(3,4-methylenedioxyphenyl)quinazolin-2-(1H)-one hydrochloride], the IC50 in data set [1] (hydrochloride) was 1.1 µM. In addition, in data set [2] (hydrochloride), the “MES ED50” value was determined as 8.1 mg/kg.
For `O=c1c2cc3c(cc2c(-c2ccc4c(c2)OCO4)nn1CCN1CCCC1)OCO3` [2-[2-(1-Pyrrolidinyl)ethyl]-4-(3,4-methylenedioxyphenyl)-6,7-methylenedioxy-1(2H)-phthalazinone], in data set [1], the IC50 was found to be 10 µM. Also, the ED50 in data set [2] is 3.8 mg/kg.
In the case of `CCN(CC)CCn1c(=O)nc(-c2ccc3c(c2)OCO3)c2cc3c(cc21)OCO3` [1-[2-(diethylamino)ethyl]4-(3,4-methylenedioxyphenyl)-6,7-methylenedioxyquinazolin-2(1H)-one], in data set [1], the IC50 amounted to 2 µM. Besides, the ED50 in data set [2] is 5.2 mg/kg.
The molecule `c1cn(CCc2nc(-c3ccc4c(c3)OCO4)c3cc4c(cc3n2)OCO4)cn1` [2-(Imidazol-1-yl)ethyl-6,7-methylenedioxy-4-(3,4-methylenedioxyphenyl)quinazoline] showed a melting point of 160 to 163 °C. Also, the IC50 in data set [1] was 4 µM. Also, in data set [2], the ED50 was determined as 3.1 mg/kg.
As to `CCOCCn1c(=O)nc(-c2ccc3c(c2)OCO3)c2cc3c(cc21)OCO3` [1-[(2-Ethoxy)ethyl]-6,7-methylenedioxy-4-(3,4-methylenedioxyphenyl)quinazoline-2-one], the IC50 in data set [1] amounted to 8 µM. The ED50 in data set [2] is 10 mg/kg.
For `CC(C)n1c(=O)nc(-c2ccc3c(c2)CCO3)c2cc3c(cc21)OCO3` [4-(2,3-Dihydrobenzofuran-5-yl)-1-isopropyl-6,7-methylenedioxyquinazolin-2(1H)-one], the IC50 in data set [1] was 10 µM. Moreover, the ED50 in data set [2] is 3.3 mg/kg.
